Source: patent US7713956B2, “Dealkylated derivatives of pyrrolo[2,1-b]benzothiazepines with atypical antipsychotic activity” (Sigma-Tau Industrie Farmaceutiche Riunite S.p.A., priority 2004, dated 2010)
Values joined by “and” are separate entries in the source; they are usually repeats but may differ in a detail not shown here. Identical values can stand only once.

What was measured:
[1] = test system: Male Fischer 344 rats; assay: Active Avoidance Test (conditioned avoidance response), oral treatment; assay type: in vivo, rat; conditions: for ED50 / effect on avoidance responses: oral; for ED50: 60 minutes prior to the test, rat, avoidance rate variable, read-out: ED50 (dose reducing avoidance responses by 50% compared to basal values); for effect on avoidance responses: over the active doses tested (ST1469 0.75-6 mg/kg; ST2087 2-8 mg/kg; ST2472 0.5-2 mg/kg)
From the text: Evaluation of the Antipsychotic Potency of ST1469 and ST1899 and their Respective Desmethyl Derivatives ST2087 and ST2472. Effect of Treatment in the Active Avoidance Test.
The administration of incremental doses of an antipsychotic drug in the rat causes the inhibition of the avoidance response and an increase in the number of escape responses without any increase in non-responses (failures). This modification of the avoidance behaviour of the animals is characteristic of the effect of the administration of a compound with antipsychotic activity, which selectively blocks the conditioned response within given dosage ranges. This behavioural assessment makes it possible to detect and determine the antipsychotic capacity of a product.
Male Fischer 344 rats weighing 180 g (Charles River) were used. The products ST1469 and ST2087 were administered to the animals orally, 60 minutes prior to the test. The product ST1469 was administered at doses of 0.75 mg/5 ml/kg (1.84 μmol/kg), 1.5 mg/5 ml/kg (3.69 μmol/kg), 3 mg/5 ml/kg (7.37 μmol/kg), and 6.0 mg/5 ml/kg (14.7 μmol/kg).
For the product ST2087 the following doses were used: 2 mg/5 ml/kg (6.25 μmol/kg), 3 mg/5 ml/kg (9.38 μmol/kg), 4 mg/5 ml/kg (12.50 μmol/kg), 6 mg/5 ml/kg ([…]) and 8 mg/5 ml/kg (25.01 μmol/kg).
To perform the avoidance behaviour assessment test, a piece of equipment (Ugo Basile) was used consisting of a plastic cage divided into two compartments by a partition wall with an opening in it allowing communication between the two sectors. Each of the two sectors can be illuminated by a 10-Watt lamp placed above a plexiglass cover covering the cage. A programming device permits the regulation of the duration and frequency of the un-conditioned and discriminatory stimuli, and a computerised system acquires the experimental data. During the study the discriminatory stimulus (light was delivered 3 seconds prior to the unconditioned stimulus (0.3 mA electric shock for 4 seconds). One test per minute was performed in each session making a total of 20 tests per day. One session per day administered.
The procedure consists in a 1 minute period of familiarisation of the rats in the test cage, followed by the series of tests the start of which is signalled by the light stimulus; the discriminatory stimulus is followed, a few seconds later, by the administration of an electric shock. The rats can avoid the shock by escaping into the adjoining compartment. The responses produced after switching on the light and before the electric shock interrupt the discriminatory stimulus and are considered “avoidances”; the responses produced during the shock period terminate both the discriminatory stimulus and the unconditioned stimulus and are considered “escapes”; non-avoidances are considered “failures”.
Prior to the treatment with the study compounds, the animals were selected in relation to their ability to acquire the task. Admitted to the test assessing the effect of treatment were those rats that produced at least 75% of avoidances in the basal tests.
The results were expressed as means and standard errors. On the basis of the number of conditioned responses (avoidances), the dose of product capable of reducing the value of this variable by 50% (ED50) compared to basal values was calculated by means of non-linear regression using the GraphPad Prism data analysis program.

[2] = In vitro metabolic stability / metabolic profile in rat hepatic microsomes; assay type: in vitro ADME, Rat (Sprague Dawley); conditions: for metabolic profile (metabolites formed): rat hepatic microsomes 0.5 mg/ml, 10 μg/ml test item, 37° C. up to 120 minutes
Procedure: (§1) In this study the metabolic profiles of ST1899 and its metabolite ST2472 were determined in rat, mouse and monkey microsomes.
(§2) ST1899 and ST2472 were separately incubated with the hepatic microsomes. Separate experiments were carried out for each animal species investigated. For each experiment, in addition to the test item, 7-ethoxycoumarin (Sigma-Aldrich) was also incubated as a probe for evaluating the metabolic activity of the microsomes: 7-hydroxycoumarin was identified on the basis of the retention times in comparison with those of synthesized standard and used as marker of oxidative metabolism Both the test item and the 7-ethoxycoumarin were incubated at 37° C. up to 120 minutes.
(§3) MgCl2, β-D-glucose-6-phosphate, βNADP and Glucose-6-phosphate dehydrogenase were used for preparing the NADPH regenerating solution (NRS). 250 μl of 0.1 M pH 7.4 KH2PO4 buffer, 100 μl of NRS and 50 μl of test item (or 7-ethoxycoumarin) standard solution were added to 2 ml Eppendorf test tubes. In the samples, incubated either without microsomes or test items, an equal volume of 0.1 M pH 7.4 KH2PO4 buffer was added.
(§4) The reaction was started by adding 100 μl of the microsomal suspension to the samples and stopped at selected times by adding 500 μl of methanol. Samples were shaken and centrifuged at 8000 RPM for 10 minutes at 4° C. Supernatants were used for the HPLC analysis. 7-ethoxycoumarin, ST1899 and ST2472 were analyzed according to the HPLC methods described below.

[3] = In vitro metabolic stability / metabolic profile in mouse hepatic microsomes; assay type: in vitro ADME, Mouse (CD1); conditions: for metabolic profile (metabolites formed): mouse hepatic microsomes 0.5 mg/ml, 10 μg/ml test item, 37° C. up to 120 minutes
Procedure: as §1, §2, §3, §4

[4] = In vitro metabolic stability / metabolic profile in monkey hepatic microsomes; assay type: in vitro ADME, Monkey (Cynomolgus); conditions: for metabolic profile (metabolites formed): monkey hepatic microsomes 0.5 mg/ml, 10 μg/ml test item, 37° C. up to 120 minutes
Procedure: as §1, §2, §3, §4

[5] = Pharmacokinetics after oral administration of a 60 μmol/kg dose in the rat; assay type: in vivo
From the text: Pharmacokinetics of the Compound ST1469 and its Corresponding Des Methyl Derivative ST2087
Effect of the Oral Administration of a 60 μmol/kg Dose of Each Product in the Rat
Administration of ST1469 in the Rat (Table 1).
Administration of ST2087 in the Rat (Table 1)

[6] = 60 umol/kg, analyte = administered product, oral 60 μmol/kg, rat, plasma, mean

Row | SMILES | ED50 [1] | metabolic profile (metabolites formed) [2] | metabolic profile (metabolites formed) [3] | metabolic profile (metabolites formed) [4] | effect on behaviour of the animals ([1]; ST2472 at 0.25 mg/kg (0.88 μmol/kg)) | effect on avoidance responses [1] | metabolic stability compared with ST1899 ([2]; rat hepatic microsomes) | metabolic stability compared with ST1899 ([3]; mouse hepatic microsomes) | metabolic stability compared with ST1899 ([4]; monkey hepatic microsomes) | AUC [5, 6] [µM·h] | Cmax [5, 6] [µM] | half-life [5, 6] [h] | concentrations at the systemic level when administered as such ([5]; oral ST2087 60 μmol/kg versus ST2087 formed after ST1469, rat) | Tmax ([5]; rat, plasma, po, 60 umol/kg, analyte = administered product, oral 60 μmol/kg, mean) [h]
1 | CN1CCN(C2=Cn3cccc3Sc3ccccc32)CC1 [ST1899, 9-(4-methylpiperazin-1-yl)-pyrrolo[2,1-b]-[1,3]benzothiazepine, reference compound] | 1.09 mg/kg and 3.66 µmol/kg | extensively metabolized to ST2472 | metabolized mainly to M1 | metabolized to ST2472 and to the metabolites M3 and M4 | – | – | – | – | – | – | – | – | – | –
2 | C1=C(N2CCNCC2)c2ccccc2Sc2cccn21 [ST2472, 9-Piperazin-1-yl-pyrrolo[2,1-b][1,3]benzothiazepine] | 1.43 mg/kg and 5.05 µmol/kg | almost exclusively metabolized to M2 | metabolized almost exclusively to M2 | the main metabolite obtained was M3 | does not significantly modify the behaviour of the animals | causes a progressive reduction of the avoidance responses and an increase in escapes | metabolically more stable than ST1899 | metabolically more stable than ST1899 | metabolically more stable than ST1899 | – | – | – | – | –
3 | Clc1ccc2c(c1)C(N1CCNCC1)Cn1cccc1S2 (racemic) [ST2087, (±)-7-chloro-9-(piperazin-1-yl)-9,10-dihydropyrrolo[2,1-b][1,3]-benzothiazepine] | 3.27 mg/kg and 10.2 µmol/kg | – | – | – | – | capable of reducing the production of avoidance responses | – | – | – | 32.2 | 4.09 | 4.4 | much higher concentrations than those measured after its formation as a result of administration of ST1469 | ≤ 2
